For series [1], the system named is cornea epithelium cells of rabbits. In words: epithelium cell migration. The following applies: 0.1% by weight sodium hyaluronate solution. It is filed as cell-based.
Series [2] in a line: subjective feeling of patients when treating dry eyes. It is filed as in vivo. Particulars: 0.1% by weight of sodium hyaluronate in the composition. The source says:
Aqueous sodium hyaluronate solutions are fluids with non-Newtonian flow properties. By virtue of that physical property, aqueous sodium hyaluronate solutions are excellently well suited as slip and lubricating agents with a good cling effect and a prolonged residence time on the conjunctival and corneal epithelia, without adversely affecting visual efficiency.

Series [3] relates to cornea epithelium. In words: wound healing after injury to the cornea epithelium or cauterisation of the cornea. It is filed as in vivo. The following applies: less scarring.
The conditions of series [4]: eye drops containing at least 0.1% of sodium hyaluronate; Jpn. J. Ophthalmol. (1996) 40: 62-65; cited from earlier work.
The nature of series [5]: tear film tearing time (fluorescein, slit lamp). It is filed as in vivo. The following applies: concentration of 0.1% by weight to 0.3% by weight. The source says: A further diagnostic parameter in regard to diagnosis of the “dry eye” syndrome is the tear film tearing time which makes it possible to provide information about the quality of the tear fluid. In that case for example the tear film is dyed with fluorescein and the patient is then asked to keep the eyes open as long as possible without a blink reflex. A slit lamp is then used to establish when the tear film tears open for the first time. If the period of time is less than 10 seconds, there is the suspicion of the “dry eye” syndrome.

Series [6] relates to cornea-epithelial barrier. Particulars: dexpanthenol-bearing eye drops; barrier disturbed by insufficient tear film; Klinische Monatsblätter für Augenheilkunde (1996) 209; 84-88; cited from earlier work.

sodium hyaluronate: in series [1], the epithelium cell migration result is “increased epithelium cell migration”. Further, the “subjective feeling of the patients” value in series [2] is given as “considerably improves”. In addition, the wound healing entry in series [3] is “faster and better wound healing”. The tear film stability entry in series [4] is on record as “improvement in tear film stability”.
Consider hyaluronic acid, for which, in series [5], the “prolonging the tear film tearing time” value is on record as “highly effective”. Besides, in series [3], the wound healing result was “faster and better wound healing”.
Consider `CC(C)(CO)[C@@H](O)C(=O)NCCCO` [dexpanthenol, D-(+)-2,4-dihydroxy-N-(3-hydroxypropyl)-3,5-dimethylbutyramide], for which the cornea-epithelial barrier function entry in series [6] is “improve the cornea-epithelial barrier function”.
